Key:
[1] = system: DU145 (prostate carcinoma); test: In vitro growth inhibition screen (sulphorhodamine B), DU145; type: cell-based, human; settings: DU145 cells, incubated for 48 hours, sulphorhodamine B dye; read-out: GI50 (concentration which inhibits the cell growth by 50%), DU145 Prostate carcinoma
Experimental: (§1) Each agent was tested over a broad concentration range (ten-fold dilutions starting from ≧100 μM to 10 nM) against 6 human cancer cell lines which was comprised of different tumor types. These are DU145 (prostate carcinoma), HT29 (colorectal adenocarcinoma), LOX (melanoma), MCF7 (breast adenocarcinoma), MCF7ADR (adriamycin resistant breast adenocarcinoma), and U251 (human glioblastoma). A standard compound doxorubicin was tested in each assay as a positive control. The cells were maintained in growing condition in RPMI 1640 medium containing 10% fetal calf serum and incubated at 37° C. under 5% CO2 atmosphere. All cell lines were inoculated onto a series of standard 96-well microtitre plate on day zero, followed by twenty four-hour incubation in the absence of test compound. The inoculation densities in the screen were as per Monk et al., (1991) J. Natl. Cancer Inst., 83, 757-766. All NCEs were dissolved in DMSO and diluted further in culture medium. An aliquot of each dilution was added to the growing cells in 96 well plates and incubated for 48 hours. After incubation, the assay was terminated by adding 50 μL of trichloroacetic acid (TCA) and incubating at 4° C. for 30 min. The precipitated cells were washed and stained with sulphorhodamine B dye for 30 min and the excess dye was washed off with acetic acid. Adsorbed dye was solubilised in Tris base (alkaline pH) and quantitated by measuring the OD at […] in ELISA READER. GI50 (concentration which inhibits the cell growth by 50%) was calculated according to Boyd and Paull, (1995) Drug Dev. Res., 34, 91-109.

[2] = system: U251 (human glioblastoma); test: In vitro growth inhibition screen (sulphorhodamine B), U251; type: cell-based; settings: U251 cells, incubated for 48 hours, sulphorhodamine B dye; read-out: GI50 (concentration which inhibits the cell growth by 50%), U251 Human glioblastoma astrocytoma
Experimental: as §1

[3] = system: HT29 (colorectal adenocarcinoma); test: In vitro growth inhibition screen (sulphorhodamine B), HT29; type: cell-based, human; settings: HT29 cells, incubated for 48 hours, sulphorhodamine B dye; read-out: GI50 (concentration which inhibits the cell growth by 50%), HT29 Colorectal adenocarcinoma
Experimental: as §1

LOX (melanoma) = test: In vitro growth inhibition screen (sulphorhodamine B), LOX; type: cell-based, human; settings: LOX cells, incubated for 48 hours, sulphorhodamine B dye; read-out: GI50 (concentration which inhibits the cell growth by 50%), LOX Melanoma
Experimental: as §1

[4] = system: MCF7ADR (adriamycin resistant breast adenocarcinoma); test: In vitro growth inhibition screen (sulphorhodamine B), MCF7ADR; type: cell-based, human; settings: MCF7ADR cells, incubated for 48 hours, sulphorhodamine B dye; read-out: GI50 (concentration which inhibits the cell growth by 50%), MCF7ADR Adriamycin Resistant Breast adenocarcinoma
Experimental: as §1

[5] = system: MCF7 (breast adenocarcinoma); test: In vitro growth inhibition screen (sulphorhodamine B), MCF7; type: cell-based, human; settings: MCF7 cells, incubated for 48 hours, sulphorhodamine B dye; read-out: GI50 (concentration which inhibits the cell growth by 50%), MCF7 Breast adenocarcinoma
Experimental: as §1

| GI50 [1] [µM] | GI50 [2] [µM] | GI50 [3] [µM] | GI50 (LOX (melanoma)) [µM] | GI50 [4] [µM] | GI50 [5] [µM] | Structure (SMILES) |
| --- | --- | --- | --- | --- | --- | --- |
| > 353 | 63.5 | 68.6 | 10.8 | 58.4 | > 353 | CCCN1C(=O)[C@H](OCc2ccccc2)[C@@H](OCc2ccccc2)[C@H](OCc2ccccc2)[C@H]1CNC(=O)Nc1ccc(Cl)cc1C(F)(F)F [Compound No. 7, 2,3,4-Tri-O-benzyl-6-N-{[4-chloro-2-trifluoromethylphenyl]aminocarbonylamino}-N-propyl-D-gluco-δ-lactam] |
| 3.4 | 2.5 | 9 | 2.2 | 0.6 | 1.3 | CCCN1C(=O)[C@H](OCc2ccccc2)[C@@H](OCc2ccccc2)[C@H](OCc2ccccc2)[C@H]1CNC(=S)NC(C)C [Compound No. 8, 2,3,4-Tri-O-benzyl-6-N-{[isopropyl]aminothiocarbonylamino}-N-propyl-D-gluco-δ-lactam] |
| 22.1 | 20.2 | 40 | 6.9 | 13.9 | 35.8 | CCCN1C(=O)[C@H](OCc2ccccc2)[C@@H](OCc2ccccc2)[C@H](OCc2ccccc2)[C@H]1CNC(=S)Nc1ccccc1 [Compound No. 9, 2,3,4-Tri-O-benzyl-6-N-{[phenyl]aminothiocarbonylamino}-N-propyl-D-gluco-δ-lactam] |
| 39.3 | 16.4 | 36.9 | 12.5 | 16.7 | 34.7 | CCCN1C(=O)[C@H](OCc2ccccc2)[C@@H](OCc2ccccc2)[C@H](OCc2ccccc2)[C@H]1CNC(=O)Nc1ccccc1 [Compound No. 10, 2,3,4-Tri-O-benzyl-6-N-{[phenyl]aminocarbonylamino}-N-propyl-D-gluco-δ-lactam] |
| 2.7 | 3.2 | 2.7 | 2.1 | 2.6 | 2.4 | CCCN1C(=O)[C@H](OCc2ccccc2)[C@@H](OCc2ccccc2)[C@H](OCc2ccccc2)[C@H]1CNC(=O)Nc1ccc(F)cc1 [Compound No. 11, 2,3,4-Tri-O-benzyl-6-N-{[p-fluorophenyl]aminocarbonylamino}-N-propyl-D-gluco-δ-lactam] |
| 48.7 | 61.8 | 29.3 | 41.6 | 35 | 88.2 | CCCN1C(=O)C(OCc2ccccc2)C(OCc2ccccc2)C(OCc2ccccc2)C1CNC(=O)NS(=O)(=O)c1ccc(Cl)cc1 [Compound No. 12, 2,3,4-Tri-O-benzyl-6-N-{[p-chlorophenylsulfonyl]aminocarbonylamino}-N-propyl-D-gluco-δ-lactam] |
| 4.2 | 6.4 | 3.6 | 3.1 | 4.6 | 6.4 | CCCN1C(=O)[C@H](OCc2ccccc2)[C@@H](OCc2ccccc2)[C@H](OCc2ccccc2)[C@H]1CNC(=O)Nc1cccc(Cl)c1 [Compound No. 13, 2,3,4-Tri-O-benzyl-6-N-{[3-chlorophenyl]aminocarbonylamino}-N-propyl-D-gluco-δ-lactam] |
| 21 | 15 | 30.4 | 7.6 | 6.7 | 35.7 | CCCN1C(=O)[C@H](OCc2ccccc2)[C@@H](OCc2ccccc2)[C@H](OCc2ccccc2)[C@H]1CNC(=O)Nc1cccc(C(C)=O)c1 [Compound No. 14, 2,3,4-Tri-O-benzyl-6-N-{[3-acetylphenyl]aminocarbonylamino}-N-propyl-D-gluco-δ-lactam] |
| 44.4 | 40.8 | 41.9 | 57.2 | 53.8 | 29.9 | CCCN1C(=O)C(OCc2ccccc2)C(OCc2ccccc2)C(OCc2ccccc2)C1CNC(=O)Nc1cc(Cl)ccc1OC [Compound No. 15, 2,3,4-Tri-O-benzyl-6-N-{[3-chloro-6-methoxyphenyl]aminocarbonylamino}-N-propyl-D-gluco-δ-lactam] |
| 59.7 | 22.9 | 58.2 | 53.3 | 74.1 | 55.6 | CCCN1C(=O)[C@H](OCc2ccccc2)[C@@H](OCc2ccccc2)[C@H](OCc2ccccc2)[C@H]1CNC(=O)Nc1ccc(F)cc1F [Compound No. 16, 2,3,4-Tri-O-benzyl-6-N-{[2,4-difluorophenyl]aminocarbonylamino}-N-propyl-D-gluco-δ-lactam] |

Reference: patent US20060241114A1, “Derivatives of azasugars as anticancer agents” (priority 2003, published 2006)
